One test deals with MX1. Nature of the test: Cytotoxicity against human MX1 cells assessed as cell viability measured after 24 hrs by CCK-8 assay. It is filed as functional, cell-based. Particulars: MX1, 24 h. On the technique in general: Tetrazolium assays rely on reduction of a dye to a coloured formazan, in cell work by metabolically active cells.
In the next test the test system is MCF7. Nature of the test: Cytotoxicity against human MCF7 cells assessed as cell viability measured after 24 hrs by CCK-8 assay. It counts as functional, cell-based. Particulars: MCF7, 24 h.
The next test has as its system MDA-MB-231. The test can be described thus: Cytotoxicity against human MDA-MB-231 cells assessed as cell viability measured after 24 hrs by CCK-8 assay. Particulars: MDA-MB-231, 24 h. It is filed as functional, cell-based.
In the next test the test system is B16-F10. Nature of the test: Cytotoxicity against mouse B16-F10 cells assessed as cell viability after 24 hrs by CCK-8 assay. It is filed as functional, cell-based. As to conditions: B16-F10, 24 h.
The target in test [1] is T1, Solute carrier family 2, facilitated glucose transporter member 1 (Homo sapiens) (UniProt P11166).
T1 sequence (whole entry): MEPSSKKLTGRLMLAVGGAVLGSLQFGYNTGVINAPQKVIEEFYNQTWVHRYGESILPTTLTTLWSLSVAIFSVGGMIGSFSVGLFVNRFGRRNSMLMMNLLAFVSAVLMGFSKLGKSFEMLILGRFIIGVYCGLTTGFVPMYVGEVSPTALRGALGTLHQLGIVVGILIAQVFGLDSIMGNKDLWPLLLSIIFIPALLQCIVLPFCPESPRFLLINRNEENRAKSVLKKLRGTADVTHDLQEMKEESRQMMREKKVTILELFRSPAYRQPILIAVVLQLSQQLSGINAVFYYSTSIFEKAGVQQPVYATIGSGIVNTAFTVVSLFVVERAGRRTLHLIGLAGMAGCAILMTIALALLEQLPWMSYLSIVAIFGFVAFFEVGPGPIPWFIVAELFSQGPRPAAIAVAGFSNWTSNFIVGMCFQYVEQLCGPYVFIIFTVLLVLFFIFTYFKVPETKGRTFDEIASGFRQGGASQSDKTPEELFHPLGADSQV
The test can be described thus: Binding affinity to GLUT1 (unknown origin) membrane assessed as free energy.

In test [2] the target is T1, Solute carrier family 2, facilitated glucose transporter member 1 (Homo sapiens). Nature of the test: Binding affinity to GLUT1 (unknown origin) assessed as binding free energy.
The species entered for a further test is Homo sapiens. The test can be described thus: Binding affinity to membrane (unknown origin) assessed as binding free energy.

For orientation: IC50 means the concentration that inhibits the measured activity by half.

Molecules are shown by their SMILES. *1 amine or outer side, *2 acyl side, *3 side chain or, on linkers, in order; H or OH if unused. Where a SMILES comes first, the peptide text is derived from it. Side-chain parts run from the residue outwards. The star is where a group is joined. NH(CH2)3O(βDGlc) = OC[C@H]1O[C@@H](OCCCN*)[C@H](O)[C@@H](O)[C@@H]1O; Glutaryl = O=C(CCCC(=O)[*:2])[*:1]; Lauroyl = CCCCCCCCCCCC(=O)*

Take `CCCCCCCCCCCCCC(=O)N[C@@H](CCCNC(=N)N)C(=O)N[C@@H](Cc1c[nH]c2ccccc12)C(=O)N[C@@H](CCCCN)C(=O)N[C@H](C(=O)N[C@@H](Cc1ccccc1)C(=O)N[C@@H](CCCCN)C(=O)N[C@@H](CCCCN)C(=O)N[C@H](C(=O)N[C@@H](CCC(=O)O)C(=O)N[C@@H](CCCCN)C(=O)N[C@H](C(=O)NCC(=O)N[C@@H](CCC(N)=O)C(=O)N[C@@H](CC(N)=O)C(=O)N[C@H](C(=O)N[C@@H](CCCNC(=N)N)C(=O)N[C@@H](CC(=O)O)C(=O)NCC(=O)N[C@H](C(=O)N[C@H](C(=O)N[C@@H](CCCCN)C(=O)N[C@@H](C)C(=O)NCC(=O)N1CCC[C@H]1C(=O)N[C@@H](C)C(=O)N[C@H](C(=O)N[C@@H](C)C(=O)N[C@H](C(=O)N[C@H](C(=O)NCC(=O)N[C@@H](CCC(N)=O)C(=O)N[C@@H](C)C(=O)N[C@@H](C)C(=O)N[C@H](C(=O)N[C@H](C(N)=O)[C@@H](C)CC)[C@@H](C)O)C(C)C)C(C)C)C(C)C)C(C)C)[C@@H](C)CC)[C@@H](C)CC)C(C)C)[C@@H](C)CC)[C@@H](C)CC` (HELM PEPTIDE1{[CCCCCCCCCCCCCC(=O)[*:2]].R.W.K.I.F.K.K.I.E.K.V.G.Q.N.I.R.D.G.I.V.K.A.G.P.A.V.A.V.V.G.Q.A.A.T.I.[am]}$$$$V2.0): the IC50 with MX1, with MCF7 and in the test with MDA-MB-231 was below 8 µM each time.

For the compound `CCCCCCCCCCCC(=O)N[C@@H](CCCCNC(=O)CCCC(=O)NCCCO[C@@H]1O[C@H](CO)[C@@H](O)[C@H](O)[C@H]1O)C(=O)NCC(=O)N[C@@H](Cc1c[nH]c2ccccc12)C(=O)N[C@@H](Cc1ccccc1)C(=O)N[C@@H](CCCNC(=N)N)C(=O)N[C@@H](C)C(=O)N[C@@H](CCSC)C(=O)N[C@@H](CCCNC(=N)N)C(=O)N[C@@H](CO)C(=O)N[C@H](C(=O)N[C@@H](C)C(=O)N[C@@H](CCCNC(=N)N)C(=O)N[C@@H](Cc1ccccc1)C(=O)N[C@H](C(=O)N[C@@H](C)C(=O)N[C@@H](CCCNC(=N)N)C(=O)N[C@@H](CCC(=O)O)C(=O)N[C@@H](CCCNC(=N)N)C(=O)N[C@@H](CC(C)C)C(=O)N[C@@H](CCCNC(=N)N)C(=O)N[C@@H](CCC(=O)O)C(=O)N[C@@H](Cc1cnc[nH]1)C(=O)N[C@@H](CC(C)C)C(N)=O)[C@@H](C)CC)[C@@H](C)CC` (Lauroyl-K([Glutaryl-NH(CH2)3O(βDGlc)])GWFRAMRSIARFIARERLREHL-NH2), the IC50 in the test with B16-F10 came out at 7.2 µM. For the same compound, the figures for the deltaG (in test [1]; in test [2]; in the test listed under Homo sapiens) were -73.7 kcal/mol, -61.7 kcal/mol and -61.5 kcal/mol, respectively.

As for `CCCCCCCCCCCC(=O)N[C@@H](CCCNC(=N)N)C(=O)NCC(=O)N[C@@H](Cc1c[nH]c2ccccc12)C(=O)N[C@@H](Cc1ccccc1)C(=O)N[C@@H](CCCCNC(=O)CCCC(=O)NCCCO[C@@H]1O[C@H](CO)[C@@H](O)[C@H](O)[C@H]1O)C(=O)N[C@@H](C)C(=O)N[C@@H](CCSC)C(=O)N[C@@H](CCCNC(=N)N)C(=O)N[C@@H](CO)C(=O)N[C@H](C(=O)N[C@@H](C)C(=O)N[C@@H](CCCNC(=N)N)C(=O)N[C@@H](Cc1ccccc1)C(=O)N[C@H](C(=O)N[C@@H](C)C(=O)N[C@@H](CCCNC(=N)N)C(=O)N[C@@H](CCC(=O)O)C(=O)N[C@@H](CCCNC(=N)N)C(=O)N[C@@H](CC(C)C)C(=O)N[C@@H](CCCNC(=N)N)C(=O)N[C@@H](CCC(=O)O)C(=O)N[C@@H](Cc1cnc[nH]1)C(=O)N[C@@H](CC(C)C)C(N)=O)[C@@H](C)CC)[C@@H](C)CC` (Lauroyl-RGWFK([Glutaryl-NH(CH2)3O(βDGlc)])AMRSIARFIARERLREHL-NH2), the IC50 with B16-F10 amounted to 5.3 µM. Further, the deltaG is -64.1 kcal/mol in test [1], -64.3 kcal/mol in test [2] and -63.6 kcal/mol in the test listed under Homo sapiens.

As for `CCCCCCCCCCCC(=O)N[C@@H](CCCNC(=N)N)C(=O)NCC(=O)N[C@@H](Cc1c[nH]c2ccccc12)C(=O)N[C@@H](Cc1ccccc1)C(=O)N[C@@H](CCCNC(=N)N)C(=O)N[C@@H](C)C(=O)N[C@@H](CCSC)C(=O)N[C@@H](CCCCNC(=O)CCCC(=O)NCCCO[C@@H]1O[C@H](CO)[C@@H](O)[C@H](O)[C@H]1O)C(=O)N[C@@H](CO)C(=O)N[C@H](C(=O)N[C@@H](C)C(=O)N[C@@H](CCCNC(=N)N)C(=O)N[C@@H](Cc1ccccc1)C(=O)N[C@H](C(=O)N[C@@H](C)C(=O)N[C@@H](CCCNC(=N)N)C(=O)N[C@@H](CCC(=O)O)C(=O)N[C@@H](CCCNC(=N)N)C(=O)N[C@@H](CC(C)C)C(=O)N[C@@H](CCCNC(=N)N)C(=O)N[C@@H](CCC(=O)O)C(=O)N[C@@H](Cc1cnc[nH]1)C(=O)N[C@@H](CC(C)C)C(N)=O)[C@@H](C)CC)[C@@H](C)CC` (Lauroyl-RGWFRAMK([Glutaryl-NH(CH2)3O(βDGlc)])SIARFIARERLREHL-NH2), in the test on B16-F10, the IC50 was found to be 4.1 µM. In addition, the deltaG in test [1] was -87.4 kcal/mol; in test [2] it was -58.5 kcal/mol; in the test listed under Homo sapiens, -27.5 kcal/mol.

As to `CCCCCCCCCCCC(=O)N[C@@H](CCCNC(=N)N)C(=O)NCC(=O)N[C@@H](Cc1c[nH]c2ccccc12)C(=O)N[C@@H](Cc1ccccc1)C(=O)N[C@@H](CCCNC(=N)N)C(=O)N[C@@H](C)C(=O)N[C@@H](CCSC)C(=O)N[C@@H](CCCNC(=N)N)C(=O)N[C@@H](CO)C(=O)N[C@H](C(=O)N[C@@H](C)C(=O)N[C@@H](CCCNC(=N)N)C(=O)N[C@@H](Cc1ccccc1)C(=O)N[C@H](C(=O)N[C@@H](C)C(=O)N[C@@H](CCCNC(=N)N)C(=O)N[C@@H](CCC(=O)O)C(=O)N[C@@H](CCCCNC(=O)CCCC(=O)NCCCO[C@@H]1O[C@H](CO)[C@@H](O)[C@H](O)[C@H]1O)C(=O)N[C@@H](CC(C)C)C(=O)N[C@@H](CCCNC(=N)N)C(=O)N[C@@H](CCC(=O)O)C(=O)N[C@@H](Cc1cnc[nH]1)C(=O)N[C@@H](CC(C)C)C(N)=O)[C@@H](C)CC)[C@@H](C)CC` (Lauroyl-RGWFRAMRSIARFIAREK([Glutaryl-NH(CH2)3O(βDGlc)])LREHL-NH2), the IC50 with B16-F10 stood at 3.3 µM. The results for the deltaG (in test [1]; in test [2]; in the test filed under Homo sapiens) were -72.8 kcal/mol, -60.1 kcal/mol and -66.8 kcal/mol, respectively.

With `CCCCCCCCCCCC(=O)N[C@@H](CCCNC(=N)N)C(=O)NCC(=O)N[C@@H](Cc1c[nH]c2ccccc12)C(=O)N[C@@H](Cc1ccccc1)C(=O)N[C@@H](CCCNC(=N)N)C(=O)N[C@@H](C)C(=O)N[C@@H](CCSC)C(=O)N[C@@H](CCCNC(=N)N)C(=O)N[C@@H](CO)C(=O)N[C@H](C(=O)N[C@@H](C)C(=O)N[C@@H](CCCNC(=N)N)C(=O)N[C@@H](Cc1ccccc1)C(=O)N[C@H](C(=O)N[C@@H](C)C(=O)N[C@@H](CCCNC(=N)N)C(=O)N[C@@H](CCC(=O)O)C(=O)N[C@@H](CCCNC(=N)N)C(=O)N[C@@H](CC(C)C)C(=O)N[C@@H](CCCCNC(=O)CCCC(=O)NCCCO[C@@H]1O[C@H](CO)[C@@H](O)[C@H](O)[C@H]1O)C(=O)N[C@@H](CCC(=O)O)C(=O)N[C@@H](Cc1cnc[nH]1)C(=O)N[C@@H](CC(C)C)C(N)=O)[C@@H](C)CC)[C@@H](C)CC` (Lauroyl-RGWFRAMRSIARFIARERLK([Glutaryl-NH(CH2)3O(βDGlc)])EHL-NH2), the IC50 in the test on B16-F10 stood at 3.5 µM. The deltaG in test [1] is -123 kcal/mol; in test [2], -77.1 kcal/mol; in the test listed under Homo sapiens, -65.7 kcal/mol.

In the case of `CCCCCCCCCCCC(=O)N[C@@H](CCCNC(=N)N)C(=O)NCC(=O)N[C@@H](Cc1c[nH]c2ccccc12)C(=O)N[C@@H](Cc1ccccc1)C(=O)N[C@@H](CCCNC(=N)N)C(=O)N[C@@H](C)C(=O)N[C@@H](CCSC)C(=O)N[C@@H](CCCNC(=N)N)C(=O)N[C@@H](CO)C(=O)N[C@H](C(=O)N[C@@H](C)C(=O)N[C@@H](CCCNC(=N)N)C(=O)N[C@@H](Cc1ccccc1)C(=O)N[C@@H](CC(C)C)C(=O)N[C@@H](C)C(=O)N[C@@H](CCCCNC(=O)CCCC(=O)NCCCO[C@@H]1O[C@H](CO)[C@@H](O)[C@H](O)[C@H]1O)C(=O)N[C@@H](CCC(=O)O)C(=O)N[C@@H](CCCNC(=N)N)C(=O)N[C@@H](CC(C)C)C(=O)N[C@@H](CCCNC(=N)N)C(=O)N[C@@H](CCC(=O)O)C(=O)N[C@@H](Cc1cnc[nH]1)C(=O)N[C@@H](CC(C)C)C(N)=O)[C@@H](C)CC` (Lauroyl-RGWFRAMRSIARFLAK([Glutaryl-NH(CH2)3O(βDGlc)])ERLREHL-NH2), the IC50 with B16-F10 is 3.8 µM. For the same compound, the deltaG in test [1] is -79.9 kcal/mol; in test [2], -61 kcal/mol; in the test filed under Homo sapiens, -87.9 kcal/mol.
